Measured values taken from paper PMC10136147, “Bacillus subtilis YtpP and Thioredoxin A Are New Players in the Coenzyme-A-Mediated Defense Mechanism against Cellular Stress” (Antioxidants, 2023).

Tests used:
GAPDH = biological target: T1, GAPDH (Staphylococcus aureus, UniProt Q6GIL8); test: anti-CoA ELISA and Western blot after in vitro CoAlation; assay type: binding; details: covalent mixed disulfide with cysteine; protein:CoA:H2O2 1:3:10, RT, 30 min; reversed by 10 mM DTT
T1 construct: gene gapA1
T1 sequence (Q6GIL8 1-336): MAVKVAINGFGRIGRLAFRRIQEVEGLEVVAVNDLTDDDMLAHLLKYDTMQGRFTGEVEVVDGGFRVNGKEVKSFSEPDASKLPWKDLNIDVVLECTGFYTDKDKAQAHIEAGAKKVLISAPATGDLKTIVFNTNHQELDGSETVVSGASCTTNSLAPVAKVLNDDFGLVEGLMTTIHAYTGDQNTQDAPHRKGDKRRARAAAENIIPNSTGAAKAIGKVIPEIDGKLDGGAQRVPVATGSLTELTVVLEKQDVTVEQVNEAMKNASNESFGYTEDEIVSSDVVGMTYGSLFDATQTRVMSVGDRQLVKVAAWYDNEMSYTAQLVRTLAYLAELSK

YtpP [1] = biological target: YtpP (Bacillus subtilis, UniProt O34357, C28S); test: anti-CoA Western blot after incubation with CoAlated protein; assay type: binding; details: covalent; CoA transferred from the CoAlated protein, 30 min, 37 C
PRDX5 = biological target: T2, PRDX5 (Homo sapiens, UniProt P30044); test: anti-CoA Western blot after in vitro CoAlation; assay type: binding; details: covalent mixed disulfide with cysteine; protein:CoA:H2O2 1:3:10, RT, 30 min; monomer and oligomer bands
T2 sequence (P30044 54-214): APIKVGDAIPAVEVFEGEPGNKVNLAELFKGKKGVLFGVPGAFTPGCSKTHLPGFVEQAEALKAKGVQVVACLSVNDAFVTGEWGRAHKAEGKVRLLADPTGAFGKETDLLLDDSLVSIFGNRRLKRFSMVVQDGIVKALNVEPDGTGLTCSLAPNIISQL

YtpP [2] = biological target: T3, YtpP (Bacillus subtilis, UniProt O34357); test: HPLC ([…] nm) of released CoA; anti-CoA Western blot; assay type: biochemical; details: CoA released from 6 uM CoA-MsrA or CoA-PRDX5 by 60 uM enzyme, 1 h, 37 C
T3 sequence (O34357 1-107): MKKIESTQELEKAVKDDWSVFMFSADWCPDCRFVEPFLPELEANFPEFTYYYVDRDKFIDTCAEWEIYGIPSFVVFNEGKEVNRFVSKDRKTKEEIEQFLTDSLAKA

MsrA = biological target: T4, MsrA (Corynebacterium diphtheriae, UniProt Q6NEL2); test: anti-CoA Western blot after in vitro CoAlation; assay type: binding; details: covalent mixed disulfide with cysteine; protein:CoA:H2O2 1:3:10, RT, 30 min; monomer and oligomer bands
T4 construct: 26 kDa
T4 sequence (Q6NEL2 1-220): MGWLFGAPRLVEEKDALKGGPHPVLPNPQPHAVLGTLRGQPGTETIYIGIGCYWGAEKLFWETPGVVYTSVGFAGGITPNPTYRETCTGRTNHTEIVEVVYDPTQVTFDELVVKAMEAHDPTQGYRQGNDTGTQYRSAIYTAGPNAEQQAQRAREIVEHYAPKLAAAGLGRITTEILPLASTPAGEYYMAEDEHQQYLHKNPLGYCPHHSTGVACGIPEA

TrxA = biological target: T5, TrxA (Bacillus subtilis, UniProt P14949); test: HPLC ([…] nm) of released CoA; anti-CoA Western blot; assay type: biochemical; details: CoA released from 6 uM CoA-MsrA or CoA-PRDX5 by 60 uM enzyme, 1 h, 37 C
T5 construct: about 11 kDa, N-terminal 6xHis tag (pET28a), E. coli BLR(DE3)
T5 sequence (P14949 1-104): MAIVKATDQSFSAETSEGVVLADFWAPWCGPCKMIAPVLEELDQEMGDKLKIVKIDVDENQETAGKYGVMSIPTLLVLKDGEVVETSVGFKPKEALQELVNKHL

YtpP (Bacillus subtilis, UniProt O34357, C28S), sequence (O34357 whole entry C28S): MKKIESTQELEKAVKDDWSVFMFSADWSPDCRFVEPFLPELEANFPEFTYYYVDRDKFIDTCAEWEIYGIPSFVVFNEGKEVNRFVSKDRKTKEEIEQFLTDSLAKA

CC(C)(COP(=O)(O)OP(=O)(O)OC[C@H]1O[C@@H](n2cnc3c(N)ncnc32)[C@H](O)[C@@H]1OP(=O)(O)O)[C@@H](O)C(=O)NCCC(=O)NCCS [CoA]
anti-CoA ELISA and Western blot after in vitro CoAlation (GAPDH): high signal was recorded due to the detection of CoA on the CoAlated protein
anti-CoA Western blot after incubation with CoAlated protein (YtpP [1]): “Δ” represents either CoAlated YtpP C28S or YtpP C31S, or CoAlated TrxA C29S
anti-CoA Western blot after in vitro CoAlation (PRDX5): anti-CoA WB was used to confirm the CoAlation of both proteins
HPLC (254 nm) of released CoA; anti-CoA Western blot (YtpP [2]): Following deCoAlation of both substrates by YtpP and TrxA, CoA release was monitored.
anti-CoA Western blot after in vitro CoAlation (MsrA): anti-CoA WB was used to confirm the CoAlation of both proteins
HPLC (254 nm) of released CoA; anti-CoA Western blot (TrxA): Following deCoAlation of both substrates by YtpP and TrxA, CoA release was monitored.
